Consider four compounds from patent publication US20100204140A1, “USE OF A PEPTIDE AS A THERAPEUTIC AGENT” (priority 2007, published 2010).

Structures are written as SMILES.

Series [1] concerns HIV-1IIIB in CEM-SS cells. Put plainly: HIV-1 antiviral assay (CPE reduction, MTS). The format is cell-based. The settings on record: peptide 10 micrograms per ml, 6 days post-infection.
The test system of series [2] is CEM-SS cells. Put plainly: Cytotoxicity in HIV-1 assay (MTS cell viability). Conditions: peptide 10 micrograms per ml.
Series [3] concerns HepG2-2.2.15 cells. Put plainly: Cytotoxicity in HBV assay (dye uptake cell viability). The class given is cell-based. The settings on record: test peptide 10 micrograms per ml, % cell control.
Series [4] concerns MRC-5 cells (human embryonal lung fibroblasts). The settings on record: 6 days.
Series [5] deals with hepatitis B virus (HBV) ayw strain in HepG2-2.2.15 cells. Put plainly: HBV replication assay (secreted HBV DNA, TaqMan PCR). The class given is cell-based. The settings on record: test peptide 10 micrograms per ml; six days; HBV DNA in supernatant. The procedure:
HepG2-2.2.15 is a stable cell line containing the hepatitis B virus (HBV) ayw strain genome (ATCC Cat. No. CRL-11997). Antiviral compounds blocking any late step of viral replication such as transcription, translation, pregenome encapsidation, reverse transcription, particle assembly and release can be identified and characterized using this cell line.
HepG2-2.2.15 cells were plated in 96-well microtiter plates. After 16-24 hours the confluent monolayer of HepG2-2.2.15 cells was washed and the medium was replaced with complete medium containing test peptide—10 micrograms per ml—in duplicate. […] Three days later the culture medium was replaced with fresh medium containing the peptide. Six days following the initial administration of the peptide, the cell culture supernatants was collected, treated with pronase and DNAse and then used in a real-time quantitative TaqMan PCR assay. The PCR-amplified HBV DNA was detected in real-time by monitoring increases in fluorescence signals that result from the exonucleolytic degradation of a quenched fluorescence probe molecule that hybridizes to the amplified HBV DNA. For each PCR amplification, a standard curve was simultaneously generated using dilutions of purified HBV DNA. Antiviral activity was calculated from the reduction in HBV DNA levels (% virus control). […]
A general note: Real-time PCR tracks product formation cycle by cycle.

A short description of series [6]: Cytotoxicity in HBV assay (dye uptake cell viability). The class given is cell-based. The settings on record: human, HepG2-2.2.15 cells (stable line containing HBV ayw genome), test peptide 10 micrograms per ml, % cell control.
Series [7] has as its system Pseudomonas aeruginosa. The class given is cell-based. The settings on record: 5 micrograms per ml.
For series [8], the system named is Streptococcus pneumoniae. The format is cell-based. The settings on record: 5 micrograms per ml.
Series [9] deals with Human A549 cells. Put plainly: Propidium iodide cell cycle assay. The format is cell-based. Conditions: 24 hours, test peptide 10 micrograms per ml.
The test system of series [10] is Human Peripheral Blood Mononuclear Cells (PBMC), T cell proliferation. As to the kind of experiment: T cell proliferation assay (PHA, 3H-thymidine). The class given is cell-based. Conditions: test peptide 10 micrograms per ml, 3 days plus 12 hours 3H-thymidine.
In series [11] the test system is Human Peripheral Blood Mononuclear Cells (PBMC), B cell proliferation. Put plainly: B cell proliferation assay (SAC plus IL-2, 3H-thymidine). Conditions: test peptide 10 micrograms per ml, 3 days plus 12 hours 3H-thymidine. The class given is cell-based.
The test system of series [12] is RAW 264.7 cells. As to the kind of experiment: Phagocytosis assay (Fluorescein-labeled Escherichia coli). The class given is cell-based, mouse. The settings on record: test peptide 10 micrograms per ml.
The subject of series [13] is spleen cells of Ovalbumin-immunized Balb/c mice. Put plainly: Th1/Th2 cytokine profiling assay. The class given is cell-based, mouse. Conditions: test peptide 10 micrograms per ml; Ovalbumin restimulation; 72 hours.
In series [14] the test system is TNF alpha production in PBMC-derived macrophages. Put plainly: TNF alpha production assay (LPS-stimulated macrophages, ELISA). The format is cell-based, human. Conditions: test peptide 10 micrograms per ml, lipopolysaccharide 200 ng/ml, overnight. An excerpt: Not stimulated macrophages served as negative background control.
A general note: In an ELISA, binding on a coated surface is turned into a signal by an enzyme label.

In series [15] the test system is Primary Human endothelial cells (HUVEC). As to the kind of experiment: Endothelial cell migration assay. The class given is cell-based. Conditions: test peptide 10 micrograms per ml, 22 hours.
The test system of series [16] is HUVEC. As to the kind of experiment: Endothelial tube formation assay. The class given is cell-based, human. The settings on record: test peptide 10 micrograms per ml, 20 hours. The text has this: Positive control was vehicle only.
The test system of series [17] is MRSA. The settings on record: 5 micrograms per ml.
The nature of series [18]: in vitro. The settings on record: human, CEM-SS cells.
Series [19] in a line: in vitro. The settings on record: human, MRC-5 cells (human embryonal lung fibroblasts).
In series [20] the test system is HCMV strain AD169 in MRC-5 cells. As to the kind of experiment: HCMV plaque reduction assay. Conditions: HCMV AD169 in MRC-5 cells; peptide 10 micrograms per ml; 7-10 days. Background: In a plaque reduction assay, fewer plaques than in the control indicate reduced infectivity or spread.

As for `Cc1cn([C@H]2C[C@H](N=[N+]=[N-])[C@@H](CO)O2)c(=O)[nH]c1=O` [AZT, reference compound], in [1], the “% CPE reduction in HIV-1 infected CEM-SS cells” value was found to be 99%. Further, the “% Cell viability” value in series [2] was determined as 97%.

As to `Nc1ccn([C@@H]2CS[C@H](CO)O2)c(=O)n1` [Compound 3TC, reference compound], the “% Cell viability” value in series [3] worked out at 95.8%.

For the compound `Nc1nc(O)c2ncn(COC(CO)CO)c2n1` [Ganciclovir], the “% Cell viability” value in [4] is recorded as 100%.

In general, viability refers to a per cent measure of how many cells are alive, often set against a control. High values mean less harm to the cells, low ones more harm to the cells. The % inhibition is the share of the control response that was lost under treatment. In the case of `CSCC[C@H](NC(=O)[C@H](CC(C)C)NC(=O)CNC(=O)[C@@H](NC(=O)[C@H](Cc1ccccc1)NC(=O)[C@H](Cc1ccccc1)NC(=O)[C@H](CC(=O)O)NC(=O)[C@H](Cc1c[nH]cn1)NC(=O)[C@H](CCSC)NC(=O)[C@@H](N)CC(=O)O)C(C)C)C(N)=O` [Neurokinin B], the “% CPE reduction in HIV-1 infected CEM-SS cells” value in [1] turned out to be 0.0%. The “% inhibition of HBV replication in HEP G2 cells” value in [5] is 78.5%. Further, the viability at 144 h, 10 micrograms per ml in series [6] is 96.1%. Further, the “% inhibition” value in series [7] was 0.0%. Moreover, the “% inhibition” value in series [8] is 0.0%. Besides, in series [9], the “Cell cycle analysis G0/G1” value worked out at 53.0, the “Cell cycle analysis G2/M” value is listed as 14.8 and the “Cell cycle analysis S” value was found to be 32.2. Further, the “% of PHA induced control” value in series [10] amounted to 88.1%. For the same compound, the “% of SAC/IL2 induced control” value in series [11] was determined as 115.1%. In series [12], the “% of control phagocytosis” value was 105.9%. In addition, in [13], the “IFNγ spleen cells; TH1 response (% of control)” value is 126.8 % of control, the “IL-2 spleen cells (% of control)” value is reported as 198.0 % of control, the “IL-4 spleen cells; TH2 response (% of control)” value was 103.5 % of control and the “IL-5 spleen cells; TH2 response (% of control)” value is 99.2 % of control. Moreover, the “TNF-a spleen cells; TH1 response (% of control)” value in series [13] is reported as 151.0 % of control. Besides, in [14], the “% of LPS induction” value was 115.9%. Besides, the “% inhibition of migration” value in [15] is −2%. Moreover, the “% inhibition of tube formation” value in series [16] came out at 14%. Also, in [17], the “% inhibition” value is 0.0%. This compound displayed a viability at 10 micrograms per ml in [18] of 98.5%. Further, the viability at 144 h in [19] came to 100%. Further, the “% plaque reduction” value in [20] is reported as 3.2%.
